{
  "source": "patent US20210283110A1",
  "about": "“COMPOUND FOR USE IN THE TREATMENT OF A DISEASE CHARACTERIZED BY DYSREGULATED MUCUS PRODUCTION AND/OR SECRETION” (UNIVERSITÄT REGENSBURG, priority 2018, published 2021)",
  "key": {"[1]": {"test_system": "airways of OVA-sensitized mice", "assay": "OVA-induced allergic airway inflammation in mice (alcian blue mucus staining, airway cross section, CD45 infiltration)", "format": "in vivo, mouse", "settings": "for OVA-induced mucus production: wt mice, tracheal instillation, niflumic acid 20 μM or niclosamide 5 μM", "experimental": "Intestinal sections were collected for histological analyses. Mouse airways were fixed by transcardial fixation and were embedded in paraffin or were used as cryosections. For paraffin sections, tissues were fixed in 4% paraformaldehyde (PFA), 0.2% picric acid and 3.4% sucrose in PBS, and were washed in methanol before embedding in paraffin. Sections were stained according to standard Periodic acid-Schiff (PAS) or Alcian Blue methods and assessed by light microscopy.\nMouse models were performed according to the previous example. For investigating mucus, IL-8 release, and leukocytes, tissues were fixed using 4% paraformaldehyde (PFA), 0.2% picric acid and 3.4% sucrose in PBS and washed in methanol before embedding in paraffin. Mucus was analyzed using standard Periodic acid-Schiff (PAS) or alcian blue staining. MUC5AC was stained using anti-MUC5AC mouse antibody (1:200, Abcam, ab3649) and a secondary antibody conjugated with Alexa488 (Life Technologies, A-21206). Nuclei were stained with Hoe33342 (0.1 μg/ml PBS, Aplichem, Darmstadt, Germany). Quantikine ELISA kits (R&D systems) were used to measure secretion of the cytokine IL-8 by Calu3 cells.\nAll methods were performed as described in the previous examples. Mice were treated with ovalbumin (OVA) to induce an allergic reaction which leads to airway inflammation. […] After allergization with OVA and development of airway inflammation, excessive mucus production and inflammatory infiltration with immune cells is observed. Activation of cholinergic receptors using the muscarinic agonist carbachol (CCH) results in constriction of the airways and secretion of mucus (FIG. 5A-C). 3-day treatment using niclosamide reduced the CCH-induced constriction of the airways (FIG. 1). Furthermore, mucus secretion and inflammatory infiltrates were reduced.\nOVA-induced allergic airway inflammation in mice caused pronounced airway goblet cell metaplasia. […] NFA is a well know inhibitor of Ca^2+ activated Cl^− channels and inhibits TMEM16A. The two main TMEM16 paralogs expressed in airway epithelial and smooth muscle cells, TMEM16A and TMEM16F, were expressed in HEK293 cells and the whole cell currents upon activation by the Ca^2+ ionophore ionomycin (Iono) were measured. […] Novel therapeutic strategies for the treatment of inflammatory airway diseases such as CF may therefore consider the use of inhibitors of TMEM16.\nThe present inventors disclose that airway epithelial knockout of TMEM16A causes a defect in basal, i.e. ATP-mediated mucus secretion. […] Mucus synthesis under inflammatory (OVA) conditions and mucus release upon cholinergic stimulation, however, were not compromised (FIG. 16C). […] Because basal mucus production still occurs in the absence of TMEM16A, other TMEM16 paralogs may also be in charge of mucus synthesis."}, "[2]": {"molecular_target": "T1, TMEM16A (Homo sapiens, UniProt Q5XXA6)", "T1 sequence (Q5XXA6 1-986)": "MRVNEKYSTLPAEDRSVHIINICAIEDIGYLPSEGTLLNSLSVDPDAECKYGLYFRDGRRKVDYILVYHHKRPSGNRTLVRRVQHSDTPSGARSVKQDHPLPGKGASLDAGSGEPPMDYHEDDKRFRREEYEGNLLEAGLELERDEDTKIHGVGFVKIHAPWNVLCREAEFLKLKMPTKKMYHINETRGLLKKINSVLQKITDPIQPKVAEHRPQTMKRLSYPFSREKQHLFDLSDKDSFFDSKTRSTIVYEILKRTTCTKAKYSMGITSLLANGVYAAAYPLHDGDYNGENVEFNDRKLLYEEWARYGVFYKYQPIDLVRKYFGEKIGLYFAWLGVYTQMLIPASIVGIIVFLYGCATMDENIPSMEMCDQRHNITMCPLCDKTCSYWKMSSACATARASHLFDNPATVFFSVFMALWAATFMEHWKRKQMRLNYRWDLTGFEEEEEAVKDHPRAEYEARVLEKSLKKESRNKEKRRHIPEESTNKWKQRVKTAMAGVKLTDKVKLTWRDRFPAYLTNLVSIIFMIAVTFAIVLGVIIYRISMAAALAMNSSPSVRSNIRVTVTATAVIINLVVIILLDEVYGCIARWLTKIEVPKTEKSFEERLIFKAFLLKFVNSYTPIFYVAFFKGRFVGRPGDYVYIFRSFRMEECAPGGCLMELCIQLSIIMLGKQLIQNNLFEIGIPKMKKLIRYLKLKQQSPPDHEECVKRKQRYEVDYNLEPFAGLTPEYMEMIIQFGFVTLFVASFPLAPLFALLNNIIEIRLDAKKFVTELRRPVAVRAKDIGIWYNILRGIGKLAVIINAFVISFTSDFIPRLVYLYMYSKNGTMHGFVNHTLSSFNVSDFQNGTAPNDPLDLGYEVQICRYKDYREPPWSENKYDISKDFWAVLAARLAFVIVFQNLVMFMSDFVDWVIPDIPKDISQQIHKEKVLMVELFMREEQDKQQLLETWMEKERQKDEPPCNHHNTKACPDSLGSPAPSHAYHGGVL", "assay": "Whole cell currents in HEK293 cells expressing TMEM16A (patch clamp)", "format": "cell-based", "parameters": "expressed in transfected cells; host or cells: HEK293 cells", "settings": "HEK293; 1 nM ionomycin; NFA", "experimental": "(§1) FIG. 14: The TMEM16-inhibitor niflumic acid attenuates inflammatory airway disease. • A,B) OVA-sensitization induced pronounced goblet cell metaplasia as indicated by alcian blue positivity. Exposure to carbachol (CCH, 25 mg/ml, nebulizer) induced release of mucus and airway […]. Bars indicate […]. […] Mean±SEM; *significant inhibition by NFA (paired ttest). # significant difference when compared to OVA (unpaired t-test). (n) number of airways analysed or number of cells examined.\n(§2) FIG. 15: Inhibition of TMEM16A and TMEM16F by niclosamide. • A) TMEM16A whole cell currents in overexpressing HEK293 cells. […]\n(§3) OVA-induced allergic airway inflammation in mice caused pronounced airway goblet cell metaplasia. […] The two main TMEM16 paralogs expressed in airway epithelial and smooth muscle cells, TMEM16A and TMEM16F, were expressed in HEK293 cells and the whole cell currents upon activation by the Ca^2+ ionophore ionomycin (Iono) were measured. […]\n(§4) Similar to TMEM16A, also overexpressed TMEM16F was inhibited by niclosamide (FIG. 15D). […] TMEM16A was activated by ionomycin and TMEM16A currents were measured as iodide quenching."}, "[3]": {"molecular_target": "T2, TMEM16F (Homo sapiens, UniProt Q4KMQ2)", "T2 construct": "expressed in transfected cells; host or cells: HEK293 cells", "T2 sequence (Q4KMQ2 1-910)": "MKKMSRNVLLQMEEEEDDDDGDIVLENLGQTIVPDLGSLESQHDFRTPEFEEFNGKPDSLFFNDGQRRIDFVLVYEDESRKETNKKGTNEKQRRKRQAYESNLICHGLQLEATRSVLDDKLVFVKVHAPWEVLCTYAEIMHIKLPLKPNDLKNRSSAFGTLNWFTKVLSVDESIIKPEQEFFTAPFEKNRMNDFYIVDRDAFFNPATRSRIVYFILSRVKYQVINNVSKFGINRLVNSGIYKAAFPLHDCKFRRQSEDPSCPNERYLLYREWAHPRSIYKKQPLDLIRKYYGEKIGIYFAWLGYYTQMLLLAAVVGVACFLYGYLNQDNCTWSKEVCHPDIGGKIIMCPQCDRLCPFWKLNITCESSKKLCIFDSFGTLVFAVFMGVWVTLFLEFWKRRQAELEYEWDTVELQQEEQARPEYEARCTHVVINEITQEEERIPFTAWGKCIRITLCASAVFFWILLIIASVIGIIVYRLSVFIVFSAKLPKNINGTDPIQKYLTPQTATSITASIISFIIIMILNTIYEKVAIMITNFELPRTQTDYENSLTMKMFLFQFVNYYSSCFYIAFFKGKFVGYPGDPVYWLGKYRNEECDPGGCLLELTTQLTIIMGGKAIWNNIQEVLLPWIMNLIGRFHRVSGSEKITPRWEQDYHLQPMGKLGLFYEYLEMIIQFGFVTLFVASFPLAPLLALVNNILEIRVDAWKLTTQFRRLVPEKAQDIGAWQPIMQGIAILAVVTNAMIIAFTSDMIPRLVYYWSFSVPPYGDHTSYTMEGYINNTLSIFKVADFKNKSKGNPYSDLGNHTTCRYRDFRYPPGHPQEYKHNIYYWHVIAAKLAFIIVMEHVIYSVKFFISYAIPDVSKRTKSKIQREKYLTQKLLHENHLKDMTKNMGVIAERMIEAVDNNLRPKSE", "assay": "Whole cell currents in HEK293 cells expressing TMEM16F (patch clamp)", "format": "cell-based", "settings": "HEK293; 1 nM ionomycin; NFA", "experimental": "as §1, §2, §3, §4"}, "[4]": {"test_system": "endogenous TMEM16A", "assay": "Iodide quenching of YFP in HT29 cells stimulated with ionomycin", "format": "cell-based", "experimental": "FIG. 15: Inhibition of TMEM16A and TMEM16F by niclosamide. • A) TMEM16A whole cell currents in overexpressing HEK293 cells. […] Rate of YFP quenching (arbitrary units (au/second), when applying 20 mM iodide to the extracellular bath solution. HT29 cells stably overexpressing YFP were stimulated with […] ionomycin. 100,000 cells were seeded/well. Mean±SEM; (number of experiments) #significant inhibition when compared to the absence of the inhibitor (p<0.05; unpaired t-test); *significant activation by UTP (paired t-test).\nSimilar to TMEM16A, also overexpressed TMEM16F was inhibited by niclosamide (FIG. 15D). The effect of niclosamide was also examined on endogenous TMEM16A expressed in HT29 colonic carcinoma cells, which were stably transfected with iodide-sensitive yellow fluorescent protein (YFP). TMEM16A was activated by ionomycin and TMEM16A currents were measured as iodide quenching."}, "[5]": {"test_system": "airway epithelial specific TMEM16A knockout mice", "assay": "Airway mucus in airway epithelial specific TMEM16A knockout mice", "format": "in vivo, mouse", "settings": "1 mg/kg intraperitoneally for 5 days", "experimental": "In another set of experiments, airway epithelial specific TMEM16A knockout mice were treated with benzbromarone. Airway epithelial specific TMEM16A knockout mice accumulate mucus in club cells, likely due to a secretory defect (FIG. 20A). Benzbromarone […], intraperitoneally) was applied for 5 days to mice with an airway epithelial specific knockout of TMEM16A. […] Thus benzbromarone is beneficial in the treatment of CF by reducing airway mucus plugging and therefore improving lung function."}, "[6]": {"test_system": "TMEM16A-expressing HEK293 cells", "assay": "FM4-64 fluorescence (exocytosis) in TMEM16A-expressing HEK293 cells", "format": "cell-based", "settings": "10 μM", "experimental": "FIG. 8: TMEM16A controls exocytosis. • A) Whole cell current/voltage relationships obtained in mock transfected and TMEM16A (T16A) expressing HEK293 cells. Stimulation with the Ca^2+ ionophore ionomycin (Iono; 1 μM) activated whole cell currents in TMEM16A-expressing cells (n=12). • B) Increase of FM4-64 fluorescence upon stimulation with ionomycin in mock-transfected and TMEM16A-expressing cells, and inhibition by CaCCinhAO1 (AO1; 10 μM) (n=30). • C) Effect of ATP, or • D) CCH (both 100 μM) on FM4-64 fluorescence in cells expressing P2Y2 or M3 receptors (n=30). Mean±SEM. *significant increase by Iono (paired t-test). #significant difference when compared to mock (unpaired t-test)."}, "[7]": {"settings": "OVA-sensitized mice, acute exposure to TMEM16A activator"}, "[8]": {"settings": "OVA-sensitized mice, 20 mg/kg/day intratracheal for three days before CCH, 20 mg/kg/day"}},
  "note": "“Also recorded” adds a separate entry of the source.",
  "data": [
    {"smiles": "COCCN(C(=O)c1cc(OC)c(OC)c(OC)c1)c1nc(-c2ccccc2)cs1", "note": "[Eact]", "values": [
      {"measurement": "airway contraction", "setting": "[1]; [7]", "result": "airway contraction"},
      {"measurement": "mucus release", "setting": "[1]; [7]", "result": "induces massive mucus release"}
    ]},
    {"smiles": "O=C(O)c1cccnc1Nc1cccc(C(F)(F)F)c1", "note": "[NFA, niflumic acid]", "values": [
      {"measurement": "CCH-induced airway contraction (airway cross sections)", "setting": "[1]; [8]", "result": "completely blocked; also recorded: strongly attenuated"},
      {"measurement": "mucus production / airway mucus", "setting": "[1]; [8]", "result": "abolished; also recorded: strongly attenuated"},
      {"measurement": "OVA-induced mucus production", "setting": "[1]", "result": "strongly reduced"},
      {"measurement": "OVA-induced mucus production", "setting": "[1]; listed as niflumic acid", "result": "inhibited mucus production"},
      {"measurement": "TMEM16A whole cell current activated by ionomycin", "setting": "[2]", "result": "potently suppressed"},
      {"measurement": "TMEM16F whole cell current activated by ionomycin", "setting": "[3]", "result": "potently suppressed"}
    ]},
    {"smiles": "O=C(Nc1ncc([N+](=O)[O-])s1)c1ccccc1O", "note": "[tizoxanide, 2-hydroxy-N-(5-nitro-1,3-thiazol-2-yl)benzamide]", "values": [
      {"measurement": "potency compared with CaCCinhAO1 or dichlorophen", "setting": "[4]; HT29 YFP iodide quenching", "result": "more potent"},
      {"measurement": "inhibition of endogenous TMEM16A (iodide quenching of YFP)", "setting": "[4]; HT29 cells stably expressing YFP, ionomycin, 20 mM iodide", "result": "low nanomolar range"}
    ]},
    {"smiles": "CCc1oc2ccccc2c1C(=O)c1cc(Br)c(O)c(Br)c1", "note": "[Benzbromarone, (3,5-dibromo-4-hydroxyphenyl) (2-ethyl-1-benzofuran-3-yl)methanone]", "values": [
      {"measurement": "mucus production", "setting": "[5]", "result": "largely reduced"}
    ]},
    {"smiles": "CC(C)(C)C1CCc2c(sc(NC(=O)c3ccco3)c2C(=O)O)C1", "note": "(stereo not drawn) [CaCCinhAO1]", "values": [
      {"measurement": "increase of FM4-64 fluorescence upon stimulation with ionomycin", "setting": "[6]", "result": "inhibition"}
    ]}
  ]
}
